system: Phosphorylation of STAT6 in human A549 cells; experiment: Phosphorylated STAT6 (pSTAT6) flow cytometry assay in human A549 cells; type: cell-based; details: listed as I-393, read-out: STAT6 IL4 pSTAT6 assay in A549 cells: Average IC50
Text: Example 3. Phosphorylated STAT6 (pSTAT6) Flow Cytometry Assay in Human A549 Cells
Phosphorylation of STAT6 in human A549 cells was quantitatively measured using flow cytometry technology.

Row | IC50 [nM] | SMILES
1 | < 100 | CCC1CN(C)CC1c1cc(C2=CCCN(C(=O)CCn3ccnn3)C2)c(F)c2[nH]c(C(=O)N3CCN(c4ncc(F)cc4OC)CC3)cc12 (centres unmarked) [Example I-1208, 1-[5-[4-(4-ethyl-1-methyl-pyrrolidin-3-yl)-7-fluoro-2-[4-(5-fluoro-3-methoxy-2-pyridyl)piperazine-1-carbonyl]-1H-indol-6-yl]-3,6-dihydro-2H-pyridin-1-yl]-3-(triazol-1-yl)propan-1-one]

same assay, conditions: read-out: STAT6 IL4 pSTAT6 assay in A549 cells: Average IC50

Row | SMILES | IC50 [nM]
2 | COc1ccccc1N1CCN(C(=O)c2cc3c(-c4cnc5ccccc5c4OC)cc(C4=CCCN(C(=O)CCn5ccnn5)C4)c(F)c3[nH]2)CC1 [Example I-448] | < 100
3 | COc1ccccc1-c1cc(C2=CCCN(C(=O)CCn3ccnn3)C2)c(F)c2[nH]c(C(=O)N3CCN(c4ccnc5c4CC(=O)N5)CC3)cc12 [Example I-914] | < 100
4 | COc1ccccc1-c1cc(C2=CCCN(C(=O)CCn3ccnn3)C2)c(F)c2[nH]c(C(=O)N3CCN(c4cccc5nonc45)CC3)cc12 [Example I-951] | < 100
5 | COCOc1ccc(F)cc1-c1cc(C2=CCCN(C(=O)CCn3ccnn3)C2)c(F)c2[nH]c(C(=O)N3CCN(c4ncc(F)cc4OC)CC3)cc12 [Example I-660] | < 100
6 | COc1cnccc1-c1cc(C2=CCCN(C(=O)CCn3ccnn3)C2)c(F)c2[nH]c(C(=O)N3CCN(c4ncc(C(F)(F)F)cc4OC)CC3)cc12 [Example I-435] | < 100
7 | COCOc1cc(F)ccc1-c1cc(C2=CCCN(C(=O)CCn3ccnn3)C2)c(F)c2[nH]c(C(=O)N3CCN(c4ncc(F)cc4OC)CC3)cc12 [Example I-670] | < 100
8 | COc1cc(F)cnc1N1CCN(C(=O)c2cc3c(-c4cnn(Cc5ccccc5)c4)cc(C4=CCCN(C(=O)CCn5ccnn5)C4)c(F)c3[nH]2)CC1 [Example I-1115] | < 100
9 | CCc1nc(C)ccc1-c1cc(C(=O)N2CCN(c3ncc(F)cc3OC)CC2)cc2cc(C3=CCCN(C(=O)CC(=O)O)C3)n(CC(C)C)c12 [Example I-800] | > 100000
10 | COc1ccccc1N1CCN(C(=O)c2cc3c(-c4cnccc4OC(F)F)cc(C4=CCCN(C(=O)CCn5ccnn5)C4)c(F)c3[nH]2)CC1 [Example I-426] | < 100
11 | CCc1cnccc1-c1cc(C(=O)N2CCN(c3ncc(F)cc3OC)CC2)cc2cc(C3=CCCN(C(=O)CCn4ccnn4)C3)n(CC3CC3)c12 [Example I-542] | > 100000
12 | COc1ccccc1-c1cc(C2=CCCN(C(=O)CCn3ccnn3)C2)c(F)c2[nH]c(C(=O)N3CCN(c4ncccc4OC(F)F)CC3)cc12 [Example I-358] | < 100
13 | COc1cc(F)cnc1N1CCN(C(=O)c2cc3c(-c4ccnc(N5CCN(C)CC5)c4)cc(C4=CCCN(C(=O)CCn5ccnn5)C4)c(F)c3[nH]2)CC1 [Example I-617] | < 100
14 | COc1ccccc1-c1cc(C2=CCCN(C(=O)CCn3ccnn3)C2)c(F)c2[nH]c(C(=O)N3CCN(c4cccc(C(F)(F)F)n4)CC3)cc12 [Example I-937] | 100 to 1000
15 | COc1ccccc1-c1cc(C2=CCCN(C(=O)CCn3ccnn3)C2)c(F)c2[nH]c(C(=O)N3CCN(c4nccc5ccncc45)CC3)cc12 [Example I-355] | < 100
16 | COc1ccccc1-c1cc(C2=CCCN(C(=O)CCn3ccnn3)C2)c(F)c2[nH]c(C(=O)N3CCN(c4cc(OC)c5c(c4)nnn5C)CC3)cc12 [Example I-962] | < 100
17 | CN(C)C(=O)c1cc2cc(C3=CCCN(C(=O)CCn4ccnn4)C3)cc(-c3ccc4cnn(C)c4c3)c2o1 [Example I-1072] | < 100
18 | COc1cc(N2CCN(C(=O)c3cc4c(-c5ccccc5OC)cc(C5=CCCN(C(=O)CCn6ccnn6)C5)c(F)c4[nH]3)CC2)c2ccccc2c1 [Example I-957] | 100 to 1000
19 | CCc1ccc(-c2cc(C(=O)N3Cc4cnn(CC)c4C3)cc3cc(C4=CCCN(C(=O)C(=O)O)C4)n(CC4CC4)c23)c(C)n1 [Example I-798] | > 100000
20 | CCc1nc(C)ccc1-c1cc(C(=O)N2Cc3cnn(CC)c3C2)c(F)c2cc(C3=CCCN(C(=O)CCn4ccnn4)C3)n(CC3CC3)c12 [Example I-549] | > 100000
21 | CCc1ccncc1-c1cc(C2=CCCN(C(=O)CC(=O)O)C2)c(F)c2[nH]c(C(=O)N3Cc4cnn(CC)c4C3)cc12 [Example I-787] | < 100
22 | Cc1ccc(-c2cc(C3=CCCN(C(=O)CCn4ccnn4)C3)cc3cc(C(=O)N(C)C)oc23)c(O)c1 [Example I-853] | < 100
23 | CCc1nc(C)ccc1-c1cc(C(=O)N2CCN(c3ncc(F)cc3OC)CC2)cc2cc(C3=CCCN(C(=O)CCn4cccn4)C3)n(CC3CC3)c12 [Example I-522] | < 100
24 | CCc1ccncc1-c1cc(C2=CCC[C@@H](C(=O)O)C2)c(F)c2[nH]c(C(=O)N3CCN(c4ncc(F)cc4OC)CC3)cc12 (single isomer, unassigned) [Example I-810] | > 100000
25 | CCc1cc(C)ncc1-c1cc(C2=CCCN(C(=O)CCc3nccs3)C2)c(F)c2[nH]c(C(=O)N3CCN(c4nc(C)ccc4OC)CC3)cc12 [Example I-526] | < 100

The remaining lines, values ahead:

Row | IC50 [nM] | SMILES
26 | < 100 | COc1cccc(N2CCN(C(=O)c3cc4c(-c5cnccc5OC)cc(C5=CCCN(C(=O)CCn6ccnn6)C5)c(F)c4[nH]3)CC2)n1 [Example I-440]
27 | < 100 | COc1ccccc1-c1cc(C2=CCCN(C(=O)CCn3ccnn3)C2)c(F)c2[nH]c(C(=O)N3CC=C(C4CC4)CC3)cc12 [Example I-511]
28 | 100 to 1000 | CN(C)C(=O)c1cc2ccc(C3=CCCN(C(=O)CCc4ccon4)C3)cc2[nH]1 [Example I-831]
29 | 100 to 1000 | C#Cc1cc(C2=CCCN(C(=O)CCn3ccnn3)C2)cc2cc(C(=O)N(C)C)oc12 [Example I-373, 5-(1-(3-(1H-1,2,3-triazol-1-yl)propanoyl)-1,2,5,6-tetrahydropyridin-3-yl)-7-ethynyl-N,N-dimethylbenzofuran-2-carboxamide]
30 | < 100 | CCC1=C(c2cc(C3=CCCN(C(=O)CCn4ccnn4)C3)c(F)c3[nH]c(C(=O)N4CCN(c5ncc(F)cc5OC)CC4)cc23)CN(C)C1 [Example I-782]
31 | < 100 | CN(C)C(=O)c1cc2cc(C3=CCCN(C(=O)CCn4ccnn4)C3)cc(-c3cnn(C)c3)c2o1 [Example I-1077]
32 | 1000 to 10000 | COc1cc(F)cnc1N1CCN(C(=O)c2cc3c(/C=C/CCl)cc(C4=CCCN(C(=O)CCn5ccnn5)C4)c(F)c3[nH]2)CC1 [Example I-1162]
33 | < 100 | O=C(CCn1ccnn1)N1CCC=C(c2cc(-c3ccccc3OC3CC3)c3cc(C(=O)N4CCN(c5ncccc5OC5CC5)CC4)[nH]c3c2F)C1 [Example I-477]
34 | < 100 | COc1ccccc1-c1cc(C2=CCCN(C(=O)CCn3ccnn3)C2)c(F)c2[nH]c(C(=O)N3CCCN(c4ccc(F)cn4)CC3)cc12 [Example I-850]
35 | < 100 | COc1ccncc1-c1cc(C2=CCCN(C(=O)CCn3ccnn3)C2)c(F)c2[nH]c(C(=O)N3CCN(c4nnccc4OC)CC3)cc12 [Example I-467]
36 | < 100 | COc1cc(F)cnc1N1CCN(C(=O)c2cc3c(-c4ccc5c(c4)OCCCO5)cc(C4=CCCN(C(=O)CCn5ccnn5)C4)c(F)c3[nH]2)CC1 [Example I-1148]
37 | < 100 | COc1ccncc1-c1cc(C2=CCCN(C(=O)CCn3ccnn3)C2)c(F)c2[nH]c(C(=O)N3CCN(c4ncccc4OC4CC4)CC3)cc12 [Example I-456]
38 | < 100 | COc1cccnc1N1CCN(C(=O)c2cc3c(C4=CCN(C)CC4C)cc(C4=CCCN(C(=O)CCn5ccnn5)C4)c(F)c3[nH]2)CC1 (centres unmarked) [Example I-1150]
39 | < 100 | COc1cc(F)cnc1N1CCN(C(=O)c2cc3c(C=CC(C)(C)O)cc(C4=CCCN(C(=O)CCn5ccnn5)C4)c(F)c3[nH]2)CC1 [Example I-1110]
40 | < 100 | CNc1ccc(-c2cc([C@H]3CCCN(C(=O)CCn4ccnn4)C3)cc3[nH]c(C(=O)N(C)C)cc23)c(OC)c1 (single isomer, unassigned) [Example I-1194]
41 | < 100 | COc1cccc(N2CCN(C(=O)c3cc4c(-c5cccnc5OC)cc(C5=CCCN(C(=O)CCn6ccnn6)C5)c(F)c4[nH]3)CC2)n1 [Example I-606]
42 | 100 to 1000 | COC(=O)c1cnn(-c2cc(C3=CCCN(C(=O)CCn4ccnn4)C3)cc3cc(C(=O)N(C)C)oc23)c1 [Example I-1049]
43 | < 100 | CN(C)C(=O)c1cc2c(C3CCCCC3)cc([C@H]3CCCN(C(=O)CCn4cccn4)C3)c(F)c2[nH]1 [Example I-840]
44 | < 100 | COc1cc(F)cnc1N1CCN(C(=O)c2cc3c(C4CCCCN4C)cc(C4=CCCN(C(=O)CCn5ccnn5)C4)c(F)c3[nH]2)CC1 (centres unmarked) [Example I-780]
45 | 100 to 1000 | COc1ccccc1-c1cc(C2=CCCN(C(=O)CCn3ccnn3)C2)c(F)c2[nH]c(C(=O)N3CCN(c4c(C)cccc4OC)CC3)cc12 [Example I-913]
46 | < 100 | COc1ccccc1-c1cc(C2=CCCN(C(=O)CCn3ccnn3)C2)c(F)c2[nH]c(C(=O)N3CCN(C)CC3)cc12 [Example I-841]
47 | < 100 | COc1ccccc1-c1cc(C2=CCCN(C(=O)CCn3ccnn3)C2)c(F)c2[nH]c(C(=O)N3CCN(c4cnn5ccncc45)CC3)cc12 [Example I-1015]
48 | 10000 to 100000 | COc1cccnc1N1CCN(C(=O)c2cc3c(C4CCC5(CCNCC5)CC4)cc(C4=CCCN(C(=O)CCn5ccnn5)C4)c(F)c3[nH]2)CC1 [Example I-698]
49 | < 100 | COc1cccnc1N1CCN(C(=O)c2cc3c(-c4cccc(F)c4F)cc(C4=CCCN(C(=O)CCn5ccnn5)C4)c(F)c3[nH]2)CC1 [Example I-371]
50 | < 100 | CCc1cc(C)ncc1-c1cc(C2=CCCN(C(=O)CCn3ccnn3)C2)c(F)c2[nH]c(C(=O)N3CCN(C4CC4)CC3)cc12 [Example I-536]
51 | < 100 | COc1ccccc1-c1cc(C2=CCCN(C(=O)CCn3ccnn3)C2)c(F)c2[nH]c(C(=O)N3CCc4ccc(N)cc4C3)cc12 [Example I-1012]
52 | < 100 | COc1ncccc1-c1cc(C2=CCCN(C(=O)CCn3ccnn3)C2)c(F)c2[nH]c(C(=O)N3CCN(c4ncccc4OC4CC4)CC3)cc12 [Example I-595]
53 | < 100 | COc1ccccc1-c1cc(C2=CCCN(C(=O)CCn3ccnn3)C2)c(F)c2[nH]c(C(=O)N3CCN(c4cnn5c4CCC5)CC3)cc12 [Example I-1013]
